Target: T1, recombinant HIV-1 protease expressed in E. Coli (Human immunodeficiency virus type 1 group M subtype B, UniProt P04585)
T1 construct: Enzyme: recombinant HIV-1 protease expressed in E. Coli; purchased Bachem California, Inc. (Torrance, Calif.) H-9040; host or cells: E. coli
Test: HIV-1 Protease Enzyme Assay (Ki), fluorimetric detection of hexapeptide substrate cleavage
Format: biochemical
Conditions: recombinant HIV-1 protease 1 to 2.5 nM, substrate 40 μM, pH 5.3, 37° C., tight-binding competitive inhibition
From the text: Biological Assays Used for the Characterization of HIV Protease Inhibitors HIV-1 Protease Enzyme Assay (Ki)
The assay is based on the fluorimetric detection of synthetic hexapeptide substrate cleavage by HIV-1 protease in a defined reaction buffer as initially described by M. V. Toth and G. R. Marshall, Int. J. Peptide Protein Res. 36, 544 (1990)
Substrate: (2-aminobenzoyl)Thr-Ile-Nle-(p-nitro)Phe-Gln-Arg
Substrate supplied by Bachem California, Inc. (Torrance, Calif.; Cat. no. H-2992)
Enzyme: recombinant HIV-1 protease expressed in E. Coli
Enzyme supplied by Bachem California, Inc. (Torrance, Calif.; Cat. no. H-9040)
Reaction buffer: 100 mM ammonium acetate, pH 5.3
• 1 M sodium chloride • 1 mM ethylendiaminetetraacetic acid • 1 mM dithiothreitol • 10% dimethylsulfoxide Assay Protocol for the Determination of Inhibition Constant Ki: • 1. Prepare series of solutions containing identical amount of the enzyme (1 to 2.5 nM) and a tested inhibitor at different concentrations in the reaction buffer • 2. Transfer the solutions (190 μL each) into a white 96-well plate • 3. Preincubate for 15 min at 37° C. • 4. Solubilize the substrate in 100% dimethylsulfoxide at a concentration of 800 μM. Start the reaction by adding 10 μL of 800 μM substrate into each well (final substrate concentration of 40 μM) • 5. […]

## CCOP(=O)(COc1ccc(C[C@H](NC(=O)O[C@H]2CO[C@H]3OCC[C@H]32)[C@@H](O)CN(Cc2ccc(-c3ccccn3)cc2)NC(=O)[C@@H](NC(=O)OC)C(C)(C)C)cc1)OCC [Example AY]
  Ki: < 0.03 nM
